# The OligoGym collection
# Bases are written 5' to 3'; sugars and linkages follow in the same order, as letters with counts (s phosphorothioate, o phosphodiester; PS: all linkages phosphorothioate). C may stand for cytosine or 5-methylcytosine; the collection does not tell. l = locked nucleic acid (LNA); d = 2'-deoxy (DNA)
# Molecular target: HIF1A
# Experiment: HeLa, 100 nM transfected, 24 h, mean of 3
# Conditions: ASO
row,Sequence,caspase activation (% of PBS control)
1,"ACTGCCTTCTTAC (sugars lldlddddddldl, PS)",146
2,"GTTACTGCCTTCTTAC (sugars ldlddddddddldlll, PS)",155
3,"TGGCAAGCATCCTGTA (sugars ldldddddddddldll, PS)",252
4,"TTACTGCCTTCTT (sugars ldldddddddldl, PS)",154
5,"GTTACTGCCTTCTTAC (sugars l1 d1 l1 d11 l2, PS)",97.8
6,"GTTACTGCCTTCTTAC (sugars ldllddddddddlldl, PS)",192
7,"GTTACTGCCTTCTTAC (sugars lddllddddddllldl, PS)",414
8,"TGGCAAGCATCCTGTA (sugars l5 d6 l2 d2 l1, PS)",344
9,"TGGCAAGCATCCTGTA (sugars l5 d6 l1 d2 l2, PS)",399
10,"GTTACTGCCTTCTTAC (sugars ldlllddddddldldl, PS)",438
11,"TGGCAAGCATCCTGTA (sugars l5 d7 l4, PS)",358
12,"GCAAGCATCCTGT (sugars l3 d7 l1 d1 l1, PS)",426
13,"TGGCAAGCATCCTGTA (sugars l1 d14 l1, PS)",201
14,"GTTACTGCCTTCTTAC (sugars l1 d12 l1 d1 l1, PS)",103
15,"TGGCAAGCATCCTGTA (sugars l3 d8 l1 d3 l1, PS)",230
16,"GTTACTGCCTTCTTAC (sugars l4 d10 l2, PS)",190
17,"TACTGCCTTCTTA (sugars l1 d2 l1 d7 l2, PS)",156
18,"TACTGCCTTCTTA (sugars l1 d1 l1 d7 l3, PS)",494
19,"TGGCAAGCATCCTGTA (sugars ldldddddddddlldl, PS)",281
20,"TTACTGCCTTCTT (sugars l1 d11 l1, PS)",82.9
21,"TGGCAAGCATCCTGTA (sugars lddldddddddldldl, PS)",274
22,"GTTACTGCCTTCTTAC (sugars l3 d1 l1 d9 l2, PS)",185
23,"TACTGCCTTCTTA (sugars l3 d7 l1 d1 l1, PS)",368
24,"GTTACTGCCTTCT (sugars l4 d6 l1 d1 l1, PS)",221

row,Sequence,caspase activation (% of PBS control)
1,"GTTACTGCCTTCTTAC (sugars llldlddddddlddll, PS)",283
2,"TGGCAAGCATCCTGTA (sugars lddldddddddllddl, PS)",314
3,"ACTGCCTTCTTAC (sugars l1 d1 l2 d8 l1, PS)",222
4,"TACTGCCTTCTTA (sugars l3 d7 l3, PS)",489
5,"TTACTGCCTTCTT (sugars l2 d8 l1 d1 l1, PS)",198
6,"GTTACTGCCTTCTTAC (sugars ldddlddddddlddll, PS)",133
7,"GTTACTGCCTTCTTAC (sugars l1 d1 l1 d10 l3, PS)",109
8,"TTACTGCCTTCTT (sugars l1 d1 l1 d9 l1, PS)",117
9,"TGGCAAGCATCCT (sugars l2 d1 l1 d6 l3, PS)",259
10,"GTTACTGCCTTCTTAC (sugars l1 d11 l4, PS)",125
11,"TGGCAAGCATCCTGTA (sugars l1 d2 l1 d10 l2, PS)",196
12,"GTTACTGCCTTCT (sugars l1 d1 l2 d6 l3, PS)",239
13,"TGGCAAGCATCCTGTA (sugars l1 d1 l1 d9 l4, PS)",379
14,"GTTACTGCCTTCTTAC (sugars ldddlddddddldddl, PS)",137
15,"TGGCAAGCATCCTGTA (sugars l5 d10 l1, PS)",403
16,"TGGCAAGCATCCTGTA (sugars llddldddddddlddl, PS)",354
17,"GTTACTGCCTTCTTAC (sugars l1 d2 l2 d6 l5, PS)",485
18,"ACTGCCTTCTTAC (sugars l1 d9 l1 d1 l1, PS)",140
19,"GTTACTGCCTTCTTAC (sugars lldlldddddddlldl, PS)",363
20,"GGCAAGCATCCTG (sugars ldldddddddldl, PS)",344
21,"TGGCAAGCATCCT (sugars l1 d9 l3, PS)",330
22,"TGGCAAGCATCCTGTA (sugars l1 d11 l2 d1 l1, PS)",231
23,"TGGCAAGCATCCTGTA (sugars l2 d1 l2 d6 l5, PS)",477
24,"ACTGCCTTCTTAC (sugars l2 d8 l1 d1 l1, PS)",199

row,Sequence,caspase activation (% of PBS control)
1,"TGGCAAGCATCCTGTA (sugars lddlldddddddldll, PS)",412
2,"GTTACTGCCTTCT (sugars l4 d7 l2, PS)",196
3,"GTTACTGCCTTCT (sugars lddlddddddldl, PS)",110
4,"TGGCAAGCATCCTGTA (sugars l3 d8 l2 d2 l1, PS)",221
5,"TGGCAAGCATCCTGTA (sugars l4 d8 l1 d2 l1, PS)",429
6,"GTTACTGCCTTCTTAC (sugars ldldlddddddlllll, PS)",342
7,"TGGCAAGCATCCTGTA (sugars ldlldddddddldddl, PS)",229
8,"GTTACTGCCTTCTTAC (sugars ldldldddddddldll, PS)",214
9,"TGGCAAGCATCCTGTA (sugars l1 d10 l2 d1 l2, PS)",444
10,"TGGCAAGCATCCTGTA (sugars llldlddddddldddl, PS)",253
11,"TGGCAAGCATCCTGTA (sugars llldlddddddllldl, PS)",413
12,"GTTACTGCCTTCTTAC (sugars lldldddddddllldl, PS)",307
13,"GTTACTGCCTTCT (sugars l1 d1 l2 d7 l2, PS)",154
14,"GGCAAGCATCCTG (sugars l1 d11 l1, PS)",316
15,"GCAAGCATCCTGT (sugars l2 d1 l1 d6 l3, PS)",267
16,"TACTGCCTTCTTA (sugars l2 d1 l1 d6 l3, PS)",427
17,"TGGCAAGCATCCTGTA (sugars llddlddddddllldl, PS)",397
18,"GTTACTGCCTTCTTAC (sugars l5 d7 l4, PS)",574
19,"TGGCAAGCATCCTGTA (sugars ldlldddddddddldl, PS)",297
20,"GTTACTGCCTTCTTAC (sugars lddllddddddlldll, PS)",196
21,"TGGCAAGCATCCTGTA (sugars l3 d10 l1 d1 l1, PS)",251
22,"GTTACTGCCTTCT (sugars l1 d1 l2 d8 l1, PS)",136
23,"CAAGCATCCTGTA (sugars l4 d8 l1, PS)",194
24,"GTTACTGCCTTCTTAC (sugars l5 d7 l1 d1 l2, PS)",454
